Read-outs that look alike come from different tables or passages of the source. Some results are limits rather than exact numbers.

This experiment has as its target T1, human CaMKIIδ (Homo sapiens, UniProt Q13557).
T1 construct: Full-length, glutathione-S-transferase(GST)-tagged, human CaMKIIδ was purchased from Carna Biosciences; purchased Carna Biosciences (CaMKIIδ); Wako Pure Chemical Industries (calmodulin) 02-111
Briefly: Evaluation of in vitro CaMKII inhibitory activity (binding assay, TR-FRET). The conditions noted are these: human CaMKIIδ. On the procedure:
Evaluation of In Vitro CaMKII Inhibitory Activity (Binding Assay)
In vitro CaMKIIδ inhibitory activity was evaluated by a binding assay.
Full-length bovine calmodulin was purchased from Wako Pure Chemical Industries (Osaka, Japan). Terbium-labeled anti-GST anti body (Tb-anti-GST Ab) was purchased from Life Technologies (Carlsbad, CA, USA). Fluorescent probe ligand, 5,5-difluoro-7,9-dimethyl-3-(3-oxo-3-((3-((4-(3-(piperazin-1-yl)phenyl)pyrimidin-2-yl)amino)phenyl)amino) propyl)-5H-dipyrrolo[1,2-c:2′,1′-f]
Time-resolved fluorescence resonance energy transfer (TR-FRET) assay
The fluorescent probe ligand, 5,5-difluoro-7,9-dimethyl-3-(3-oxo-3-((3-((4-(3-(piperazin-1-yl)phenyl)pyrimidin-2-yl)amino)phenyl)amino) propyl)-5H-dipyrrolo[1,2-c:2′,1′-f] […] After shaded incubation of the protein-probe mixture on ice for 30 min, the premix was dispensed in the assay plate including test inhibitors with 4 fold dilution series of eight concentrations. After 1 hr incubation at room temperature, TR-FRET signals were measured in duplicate using an EnVision microplate reader (Perkin Elmer, Waltham, MA, USA).
The half maximal inhibitory concentration (IC50) of test compounds was calculated by fitting the data with the logistic equation using XLfit (IDBS, Guildford, UK).

The mark [1] stands for this setting: in vitro CaMKII inhibitory activity (binding assay), read-out: Act.
[2] abbreviates: TR-FRET binding assay, class symbols A/B/C, read-out: Act (CaMKII inhibitory activity, binding assay).

As for `C[C@@H](Cn1cnnn1)Oc1cnnc(-c2ccc3ncc(-c4cc(F)ccc4C#N)n3n2)c1` [Example 298, 4-fluoro-2-[6-(5-{[(2S)-1-(1H-tetrazol-1-yl)propan-2-yl]oxy}pyridazin-3-yl)imidazo[1,2-b]pyridazin-3-yl]benzonitrile], the IC50 under setting [1] is 10 to 100 nM.

Consider `C[C@@H](Cn1cnnn1)Oc1cc(-c2ccn3ncc(-c4cncs4)c3n2)ccc1F` [compound 27], for which the IC50 under setting [2] was < 10 nM. Regarding `C[C@@H](Cn1cnnn1)Oc1cccc(-c2ccc3ncc(-c4cc(=O)n(C)cc4C#N)n3n2)c1` [compound 348], under setting [1], the IC50 is < 10 nM.

In the case of `COc1nccc(-c2cnc3ccc(-c4cccc(O[C@@H](C)Cn5cnnn5)n4)nn23)c1C#N` [compound 403], the IC50 under setting [1] was < 10 nM.

Consider `C[C@@H](Cn1cnnn1)Oc1cc(-c2ccc3ncn(-c4ccccn4)c3n2)ccc1F` [compound 153, 2-[5-(4-fluoro-3-{[(2S)-1-(1H-tetrazol-1-yl)propan-2-yl]oxy}phenyl)-3H-imidazo[4,5-b]pyridin-3-yl]pyridine], for which the IC50 under setting [2] was < 10 nM.

Take `COCCNc1cccc(-c2cnn3ccc(-c4ccc(F)c(O[C@@H](C)Cn5cnnn5)c4)nc23)c1C#N` [compound 180]: the IC50 under setting [2] is < 10 nM.

In the case of `C[C@@H](Cn1cnnn1)Oc1cncc(-c2ccc3ncc(-c4cc(F)ccc4C#N)n3n2)n1` [Example 326, 4-fluoro-2-[6-(6-{[(2S)-1-(1H-tetrazol-1-yl)propan-2-yl]oxy}pyrazin-2-yl)imidazo[1,2-b]pyridazin-3-yl]benzonitrile], the IC50 under setting [1] is < 10 nM. For `C[C@@H](Cn1cnnn1)Oc1cc(-c2ccc3ncc(-c4cccc(OC5CCNC5=O)c4C#N)n3n2)ccc1F` (stereo partly drawn) [compound 178], under setting [2], the IC50 was < 10 nM. `C[C@@H](Cn1cnnn1)Oc1cccc(-c2ccc3ncc(-c4nc[nH]c(=O)c4C#N)n3n2)c1` [compound 381]: the IC50 under setting [1] was < 10 nM. As for `C[C@@H](Cn1cnnn1)Oc1cc(-c2ccc3ncc(-c4cc(F)ccc4C#N)n3n2)ccc1F` [compound 246], under setting [1], the IC50 is < 10 nM.

For the molecule `C[C@@H](Cn1cnnn1)Oc1cc(-c2ccn3ncc(-c4ccccc4Cl)c3n2)ccc1F` [compound 133], the IC50 under setting [2] lay within 10 to 100 nM. In the case of `CCOc1ccnc(-n2cnc3ccc(-c4cccc(O[C@@H](C)Cn5cnnn5)c4)nc32)c1C#N` [compound 374], the IC50 under setting [1] was < 10 nM. On to `C[C@@H](Cn1cnnn1)Oc1cc(-c2ccn3ncc(-c4ccsc4)c3n2)ccc1F` [compound 26], for which the IC50 under setting [2] is < 10 nM. For `COc1cncc(-c2cnc3ccc(-c4ccc(F)c(O[C@@H](C)Cn5cnnn5)c4)nn23)c1C#N` [compound 470], the IC50 under setting [1] is < 10 nM. On the same count and under the same terms, next, `C[C@@H](Cn1cnnn1)Oc1cccc(-c2ccc3ncn(-c4ncccc4C#N)c3n2)c1` [Example 284, 2-[5-(3-{[(2S)-1-(1H-tetrazol-1-yl)propan-2-yl]oxy}phenyl)-3H-imidazo[4,5-b]pyridin-3-yl]pyridine-3-carbonitrile]: < 10 nM. On to `COc1ncc(C#N)cc1-c1cnc2ccc(-c3ccc(F)c(O[C@@H](C)Cn4cnnn4)c3)nn12` [compound 219], for which the IC50 under setting [2] is < 10 nM. With `C[C@@H](Cn1cnnn1)Oc1cccc(-c2ccn3ncc(-c4cccc(C(=O)NCCCCN(C)C)c4)c3n2)c1` [compound 104], the IC50 under setting [2] is < 10 nM. Take `C[C@@H](Cn1cnnn1)Oc1cccc(-c2ccc3ncc(-c4c[n+]([O-])ccc4C#N)n3n2)c1` [compound 276]: the IC50 under setting [1] was < 10 nM. Same read-out and setting: next, `C[C@@H](Cn1cnnn1)Oc1cc(-c2ccc3ncc(-c4cn(C)nc4C(F)(F)F)n3n2)ccc1F` [compound 265]: 10 to 100 nM.

Turning to `COc1nccc(-c2cnc3ccc(-c4ccc(F)c(O[C@@H](C)Cn5cnnn5)c4)nn23)c1C#N` [Example 399, 4-[6-(4-fluoro-3-{[(2S)-1-(1H-tetrazol-1-yl)propan-2-yl]oxy}phenyl)imidazo[1,2-b]pyridazin-3-yl]-2-methoxypyridine-3-carbonitrile], the IC50 under setting [1] was < 10 nM. Still for that read-out and setting: next, `C[C@@H](Cn1cnnn1)Oc1cc(-c2ccc3ncc(-c4ccc(=O)n(C)c4C#N)n3n2)ccc1F` [compound 256]: > 100 nM.

Consider `C[C@@H](Cn1cnnn1)Oc1cc(-c2ccc3ncc(-c4cccc(OCCOCCN(C)C)c4C#N)n3n2)ccc1F` [compound 209], for which the IC50 under setting [2] is < 10 nM. The same measure, in the same setting: next, `C[C@@H](Cn1cnnn1)Oc1cc(-c2ccn3ncc(-c4cnn(C(F)F)c4)c3n2)ccc1F` [compound 144]: < 10 nM. As to `C[C@@H](Cn1cnnn1)Oc1cccc(-c2ccc3ncc(-c4ncncc4C#N)n3n2)c1` [compound 273], the IC50 under setting [1] fell in the range of 10 to 100 nM. Same read-out and setting: next, `C[C@@H](Cn1cnnn1)Oc1cc(-c2ccc3ncc(-c4c(C#N)ccc[n+]4[O-])n3n2)ccc1F` [compound 297]: 10 to 100 nM. With `COCCCOC(=O)c1c(-c2cnc3ccc(-c4ccc(F)c(O[C@@H](C)Cn5cnnn5)c4)nn23)cnn1CCCOC` [compound 224], the IC50 under setting [2] is > 100 nM.

For `COCCn1cccc(-c2cnc3ccc(-c4cccc(O[C@@H](C)Cn5cnnn5)c4)nn23)c1=O` [compound 254], the IC50 under setting [1] was < 10 nM.

For the molecule `C[C@@H](Cn1cnnn1)Oc1cc(-c2ccn3ncc(-c4cccc(Cl)c4)c3n2)ccc1F` [compound 134], under setting [2], the IC50 was < 10 nM. Same read-out and setting: next, `CCNC(=O)c1cccc(-c2cnn3ccc(-c4ccc(F)c(O[C@@H](C)Cn5cnnn5)c4)nc23)c1` [compound 8]: < 10 nM; `C[C@@H](Cn1cnnn1)Oc1cccc(-c2ccn3ncc(-c4cccc(C(=O)NCCc5ccccn5)c4)c3n2)c1` [compound 106]: < 10 nM. With `C[C@@H](Cn1cnnn1)Oc1cccc(-c2ccc3ncc(-c4c(F)cccc4C#N)n3n2)n1` [compound 461], the IC50 under setting [1] was 10 to 100 nM. As to `C[C@@H](Cn1cnnn1)Oc1cc(-c2ccn3ncc(-c4ccccn4)c3n2)ccc1F` [compound 4], the IC50 under setting [2] was < 10 nM. Still for that read-out and setting: next, `CC(C)c1ccc(-c2cnn3ccc(-c4ccc(F)c(O[C@@H](C)Cn5cnnn5)c4)nc23)cc1` [compound 53]: > 100 nM; `C[C@@H](Cn1cnnn1)Oc1cccc(-c2ccn3ncc(-c4cccc(C(=O)N5CCn6ccnc6C5)c4)c3n2)c1` [compound 109]: 10 to 100 nM.

For `C[C@@H](Cn1cnnn1)Oc1cc(-c2ccc3ncc(-c4cccc(OCCN5CCC5)c4C#N)n3n2)ccc1F` [compound 215], the IC50 under setting [2] was < 10 nM. Consider `C[C@@H](Cn1cnnn1)Oc1cc(-c2ccc3ncc(-c4c[n+]([O-])ccc4C#N)n3n2)ccc1F` [Example 269, (S)-3-(6-(3-((1-(1H-tetrazol-1-yl)propan-2-yl)oxy)-4-fluorophenyl)imidazo[1,2-b]pyridazin-3-yl)-4-cyanopyridine N-oxide], for which the IC50 under setting [1] is < 10 nM.

As for `C[C@@H](Cn1cnnn1)Oc1cc(-c2ccn3ncc(-c4cccc(C(=O)O)c4)c3n2)ccc1F` [compound 7], the IC50 under setting [2] was < 10 nM. As to `C[C@@H](Cn1cnnn1)Nc1cncc(-c2ccc3ncc(-c4cc(F)ccc4C#N)n3n2)n1` [compound 484], under setting [2], the IC50 is < 10 nM. Still for that read-out and setting: next, `COc1cc(F)cc(-c2cnc3ccc(-c4cncc(N[C@@H](C)Cn5cnnn5)c4)nn23)c1C#N` [compound 482]: < 10 nM; `C[C@@H](Cn1cnnn1)Oc1cccc(-c2ccn3ncc(-c4cccc(C(=O)NCCc5cccnc5)c4)c3n2)c1` [compound 108]: < 10 nM.

As for `C[C@@H](Cn1cnnn1)Oc1cc(-c2ccn3ncc(-c4cc[nH]n4)c3n2)ccc1F` [compound 158], the IC50 under setting [2] is < 10 nM.

Consider `C[C@@H](Cn1cnnn1)Oc1cc(-c2ccc3ncc(-c4cccc(OCC5CNC(=O)C5)c4C#N)n3n2)ccc1F` (stereo partly drawn) [compound 199], for which the IC50 under setting [2] is < 10 nM. Same read-out and setting: next, `CC(=O)N1CCN(c2ccc(-c3cnn4ccc(-c5ccc(F)c(O[C@@H](C)Cn6cnnn6)c5)nc34)cc2)CC1` [compound 42]: 10 to 100 nM. Turning to `COc1ccnc(-c2cnc3ccc(-c4ccc(F)c(O[C@@H](C)Cn5ncnn5)c4)nn23)c1C#N` [compound 444], under setting [1], the IC50 is < 10 nM. Turning to `C[C@@H](Cn1cnnn1)Oc1cccc(-c2ccc3ncc(-c4nccc(OCC(F)F)c4C#N)n3n2)c1` [Example 354, 4-(2,2-difluoroethoxy)-2-[6-(3-{[(2S)-1-(1H-tetrazol-1-yl)propan-2-yl]oxy}phenyl)imidazo[1,2-b]pyridazin-3-yl]pyridine-3-carbonitrile], under setting [1], the IC50 is < 10 nM. In the case of `C[C@@H](Cn1cnnn1)Oc1cccc(-c2ccn3ncc(-c4cccc(C(=O)NCc5ccncc5)c4)c3n2)c1` [compound 93], the IC50 under setting [2] was < 10 nM.

Regarding `COc1nccnc1-c1cnc2ccc(-c3ccc(F)c(O[C@@H](C)Cn4cnnn4)c3)nn12` [compound 268], the IC50 under setting [1] was in the range of 10 to 100 nM. The same measure, in the same setting: next, `COc1ncnc(-c2cnc3ccc(-c4ccc(F)c(O[C@@H](C)Cn5cnnn5)c4)nn23)c1C#N` [compound 402]: < 10 nM; `COc1ccc(C#N)c(-c2cnc3ccc(-c4cccc(O[C@@H](C)Cn5cnnn5)n4)nn23)c1` [compound 420]: < 10 nM. On the same count and under the same terms, next, `C[C@@H](Cn1cnnn1)Oc1cccc(-c2ccc3ncn(-c4cccc(OC(F)F)c4C#N)c3n2)n1` [compound 398]: 10 to 100 nM. Regarding `C[C@@H](Cn1cnnn1)Oc1cc(-c2ccn3ncc(-c4ccsc4C#N)c3n2)ccc1F` [compound 162], the IC50 under setting [2] was < 10 nM.

These data come from patent US12528816B2, “Substituted imidazo [1,2-b] pyridazines and [1, 2, 4] triazolo [ 4,3-b] pyridazines as camkii inhibitors” (Cardurion Pharmaceuticals, INC., priority 2020, dated 2026).
